One series has as its system damaged macular area. Also on record: species or system human. To be noted: in vivo.
The test system of another series is patients with dry AMD. The conditions noted are these: 60 mcg PGE1 as alprostadil, intravenous infusion daily for 15 days, 15 patients with dry AMD; cited from earlier work.
In the next series the test system is patient with AMD. The conditions noted are these: human, in vivo.

Procedure for patient with AMD: To test the hypothesis that vasodilators can successfully treat AMD, TriMix injectable blend was obtained containing, in 10 ml of water, 0.4 ml ethanol, 0.3 g papaverine hydrochloride, 0.02 g phentolamine mesylate and 200 mcg prostaglandin. E1 (PGE1 or “alprostadil”), with 0.01 ml benzyl alcohol. […] The following example explores the role of administering Trimix to a patient with AMD.
Initial doses were 1 mcg alprostadil, but were upped to 2 mcg of alprostadil for a period of time and then lowered to the original dose. Thus, on a daily basis, 0.85-0.10 mL of the above TriMix blend can be injected into the patient, delivering 1-2 mcg alprostadil, 0.1-0.2 mg phentolamine and 1.5-3.0 mg of papaverine.

As for `CC(=O)Nc1ccc(O)cc1` [acetaminophen], the effect on vision entry with damaged macular area was “cause the mask of the damaged macular area to appear colored, such as bright red, can cause misty vision”.

In the case of `CCCCC[C@H](O)/C=C/[C@H]1[C@H](O)CC(=O)[C@@H]1CCCCCCC(=O)O` [PGE1, (11α,13E,15S)-11,15-Dihydroxy-9-osoprost-13-en-1-oic acid], the trial outcome with patients with dry AMD was “lack of statistically significant results”. In the series with patient with AMD, the “tolerability of high doses” value is recorded as “without any problems”.

In the case of `CC(=O)Oc1ccccc1C(=O)O` [aspirin], the effect on vision result with damaged macular area is “cause the mask of the damaged macular area to appear colored, such as bright red, can cause misty vision”.

As to `COc1ccc2cc([C@H](C)C(=O)O)ccc2c1` [naproxen sodium], the effect on vision result in the series on damaged macular area is reported as “cause the mask of the damaged macular area to appear colored, such as bright red, can cause misty vision”.
